Measurements published in patent US8907098B2, “Inhibitors of sphingosine kinase” (MERCK PATENT GmbH, priority 2009, dated 2014).

Biological target: modified SphK1 (Homo sapiens, UniProt Q9NYA1)
Experiment: SphK1 biochemical kinase assay (384-well flashplate)
Settings: IC50 ranges; 5 nM modified SphK1, 1 μM ATP, 30° C., 120 min; read-out: SphK1 Inhibition IC50
Protocol: The kinase assay is carried out as a 384-well flashplate assay.
5 nM modified SphK1, 800 nM omega-biotinyl-D-erythro-sphingosine and 1 μM ATP (with 0.3 μCi of ^33P-ATP/well) are incubated in a total volume of 50 μl (25 mM HEPES, 5 mM MgCl2, 1 mM dithiothreitol, 0.01% of Brij35, 0.1% of BSA (fatty acid-free), pH 7.4) without or with test substance (5-10 concentrations) at 30° C. for 120 min. The reaction is terminated using 25 μl of 200 mM EDTA solution, filtered off with suction at room temperature after 30 min, and the cavities are washed 3 times with 100 μl of 0.9% NaCl solution. The non-specific proportion of the kinase reaction (blank) is determined using 0.5 mM NaCl. Radioactivity is measured in topcount. IC50 values are calculated using RS1.

Sequence of modified SphK1 (Q9NYA1 whole entry): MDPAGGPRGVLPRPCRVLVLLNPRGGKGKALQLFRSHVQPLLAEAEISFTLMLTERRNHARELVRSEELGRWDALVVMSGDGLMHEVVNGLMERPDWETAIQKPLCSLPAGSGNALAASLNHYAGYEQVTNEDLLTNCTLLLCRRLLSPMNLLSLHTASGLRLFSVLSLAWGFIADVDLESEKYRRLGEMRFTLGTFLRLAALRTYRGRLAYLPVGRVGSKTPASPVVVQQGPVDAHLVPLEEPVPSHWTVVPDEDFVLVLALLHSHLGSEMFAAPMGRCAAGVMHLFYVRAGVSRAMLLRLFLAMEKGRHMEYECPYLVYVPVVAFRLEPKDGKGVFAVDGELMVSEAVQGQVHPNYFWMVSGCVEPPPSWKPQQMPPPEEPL

| IC50 [nM] | SMILES |
| --- | --- |
| 100 to 1000 | CC1(C)CCc2cc(-c3csc(N4CCC(N)CC4)n3)ccc21 [1-[4-(1,1-Dimethylindan-5-yl)thiazol-2-yl]piperidin-4-ylamine] |
| 100 to 1000 | CC1(C)CCCc2cc(-c3csc(C4CCNC4)n3)ccc21 (centres unmarked) [4-(5,5-Dimethyl-5,6,7,8-tetrahydronaphthalen-2-yl)-2-pyrrolidin-3-yl-thiazole] |
| 100 to 1000 | CC1(C)CCC(C)(C)c2cc(-c3csc(C4CCCNC4)n3)ccc21 (centres unmarked) [3-[4-(5,5,8,8-Tetramethyl-5,6,7,8-tetrahydronaphthalen-2-yl)thiazol-2-yl]piperidine] |
| 100 to 1000 | CC1(C)CCC(C)(C)c2cc(-c3csc(N4CCC5(CCNCC5)CC4)n3)ccc21 [3-[4-(5,5,8,8-Tetramethyl-5,6,7,8-tetrahydronaphthalen-2-yl)thiazol-2-yl]-3,9-diazaspiro[5.5]undecane] |
| 100 to 1000 | CC1(C)CCC(C)(C)c2cc(-c3csc(N4CCC(CN)CC4)n3)ccc21 |
| 100 to 1000 | CN1CCN(C2CCN(c3nc(-c4ccc5c(c4)C(C)(C)CCC5(C)C)cs3)CC2)CC1 [1-Methyl-4-{1-[4-(5,5,8,8-tetramethyl-5,6,7,8-tetrahydronaphthalen-2-yl)thiazol-2-yl]piperidin-4-yl}piperazine] |
| > 1000 | CC1(C)CCC(C)(C)c2cc(-c3ncc(C4CCNCC4)o3)ccc21 [4-[2-(5,5,8,8-Tetramethyl-5,6,7,8-tetrahydronaphthalen-2-yl)oxazol-5-yl]piperidine] |
| 100 to 1000 | CC1(C)CCCc2cc(-c3csc(N4CCC(N(CCO)CCO)CC4)n3)ccc21 |
| > 1000 | CC1(C)CCC(C)(C)c2cc(-c3csc(C4CCCN(CCCO)C4)n3)ccc21 (centres unmarked) |
| 100 to 1000 | CC1(C)CCC(C)(C)c2cc(-c3csc(N4CCC(N(Cc5cc[nH]n5)Cc5cc[nH]n5)CC4)n3)ccc21 [Bis-(1H-pyrazol-3-ylmethyl)-{1-[4-(5,5,8,8-tetramethyl-5,6,7,8-tetrahydronaphthalen-2-yl)thiazol-2-yl]piperidin-4-yl}amine] |
| 100 to 1000 | CC1(C)CCC(C)(C)c2cc(-c3csc(N4CCC(N5CCCC(O)C5)CC4)n3)ccc21 (centres unmarked) [1′-[4-(5,5,8,8-Tetramethyl-5,6,7,8-tetrahydronaphthalen-2-yl)thiazol-2-yl]-1,4′-bipiperidinyl-3-ol] |
| 100 to 1000 | CC1(C)CCC(C)(C)c2cc(-c3nc(C4CCNCC4)cs3)ccc21 [4-[2-(5,5,8,8-Tetramethyl-5,6,7,8-tetrahydronaphthalen-2-yl)thiazol-4-yl]piperidine] |
| < 100 | CC1(C)CCC(C)(C)c2cc(-c3csc(N4CCC(NCC(O)CO)CC4)n3)ccc21 (centres unmarked) |
| > 1000 | CC1(C)CCC(C)(C)c2cc(-c3csc(N4CC[C@@H](NCCO)C4)n3)ccc21 |
